Source: patent US20180185313A1, “COMPOSITION COMPRISING AMINO ACID AND CYCLIC DIPEPTIDE” (SUNTORY HOLDINGS LIMITED, priority 2015, published 2018)

Tests used:
[1] = biological target: T1, angiotensin-converting enzyme (Homo sapiens, UniProt P12821); assay: Angiotensin I-converting enzyme-inhibiting activity by ACE Kit-WST (Dojindo Laboratories), residual activity; type: biochemical; conditions: for angiotensin-converting enzyme-inhibiting action brought about by the amino acid on addition of the cyclic dipeptide: cyclic dipeptide added in a given amount to the amino acid, summary of Tables 1 to 4
T1 construct: purchased Dojindo Laboratories ACE Kit-WST
T1 sequence (P12821 30-1306, species assumed): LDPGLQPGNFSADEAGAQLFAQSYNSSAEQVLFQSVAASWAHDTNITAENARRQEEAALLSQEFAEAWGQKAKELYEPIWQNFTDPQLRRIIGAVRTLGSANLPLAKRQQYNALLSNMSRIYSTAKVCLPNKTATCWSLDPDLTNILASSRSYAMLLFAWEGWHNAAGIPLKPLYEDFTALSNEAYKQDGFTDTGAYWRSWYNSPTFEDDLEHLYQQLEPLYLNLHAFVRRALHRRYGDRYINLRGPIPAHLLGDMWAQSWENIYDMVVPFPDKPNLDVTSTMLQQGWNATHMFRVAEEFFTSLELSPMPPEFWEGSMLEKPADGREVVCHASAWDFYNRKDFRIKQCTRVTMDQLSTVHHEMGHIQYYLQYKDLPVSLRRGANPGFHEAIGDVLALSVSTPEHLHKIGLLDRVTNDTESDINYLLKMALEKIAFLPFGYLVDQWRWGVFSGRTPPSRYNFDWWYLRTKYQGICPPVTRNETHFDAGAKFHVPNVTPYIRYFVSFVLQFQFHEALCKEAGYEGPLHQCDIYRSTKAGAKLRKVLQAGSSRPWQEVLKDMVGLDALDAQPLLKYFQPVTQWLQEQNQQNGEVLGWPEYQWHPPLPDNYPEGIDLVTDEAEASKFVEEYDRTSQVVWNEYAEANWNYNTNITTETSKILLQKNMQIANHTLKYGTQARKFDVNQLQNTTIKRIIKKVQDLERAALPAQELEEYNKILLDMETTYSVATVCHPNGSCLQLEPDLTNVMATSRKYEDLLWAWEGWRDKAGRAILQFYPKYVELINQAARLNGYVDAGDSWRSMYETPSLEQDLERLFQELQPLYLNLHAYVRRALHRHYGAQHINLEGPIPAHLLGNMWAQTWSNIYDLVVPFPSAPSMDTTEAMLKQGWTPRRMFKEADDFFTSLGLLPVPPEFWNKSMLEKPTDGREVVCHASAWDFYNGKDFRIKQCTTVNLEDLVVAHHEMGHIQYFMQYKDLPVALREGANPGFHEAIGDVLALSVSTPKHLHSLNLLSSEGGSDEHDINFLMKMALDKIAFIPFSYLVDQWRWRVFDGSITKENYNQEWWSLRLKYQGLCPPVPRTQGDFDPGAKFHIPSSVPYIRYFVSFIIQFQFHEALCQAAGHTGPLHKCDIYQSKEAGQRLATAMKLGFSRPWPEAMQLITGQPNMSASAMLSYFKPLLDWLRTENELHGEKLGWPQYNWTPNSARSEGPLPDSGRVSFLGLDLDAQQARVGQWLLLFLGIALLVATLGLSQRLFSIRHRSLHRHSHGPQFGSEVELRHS
Protocol: The enhancing effect of a cyclic dipeptide on the angiotensin-converting enzyme-inhibiting action of an amino acid was evaluated. Specifically, as for the inhibiting effects of amino acids and cyclic dipeptides, angiotensin I-converting enzyme-inhibiting activities were measured by using ACE Kit-WST (Dojindo Laboratories) according to the instruction manual attached to the kit. The amino acids were studied at a concentration of 1000 μM, 3000 μM, or 5000 μM, and the cyclic dipeptides were studied at a concentration of 20 μM, 50 μM, 100 μM, 250 μM, or 500 μM. Their-inhibiting activities were evaluated as the residual activity of angiotensin-converting enzyme calculated according to expression 1 given below. A control supplemented with distilled water instead of the aqueous cyclic dipeptide solution was used. Chemically synthesized samples were used as the cyclic dipeptides.
Residual activity (%)=(Absorbance at 450 nm from the cyclic dipeptide-added group/Absorbance from 450 nm from the control)×100 (Expression 1)

[2] = test system: spontaneously hypertensive rats; conditions: oral administration; cited from earlier work
[3] = amino acid alone, no cyclic dipeptide

Compound	remaining activity at 1000 µM [1, 3] [%]	remaining activity at 5000 µM [1, 3] [%]	angiotensin-converting enzyme-inhibiting action brought about by the amino acid on addition of the cyclic dipeptide [1]	other results
N=C(N)NCCC[C@H](N)C(=O)O [Arginine, arginine]	84.8	60.2	–	–
CC(C)C[C@H](N)C(=O)O [Leucine, leucine]	83.2	43.3	–	–
C[C@@H](O)[C@H](N)C(=O)O [Threonine, threonine]	86.6	69	–	–
N[C@@H](Cc1ccc(O)cc1)C(=O)O [Tyrosine, tyrosine]	94	–	–	remaining activity at 3000 µM ([1]; amino acid alone, 3000 μM, no cyclic dipeptide): 90.6%
N[C@@H](Cc1c[nH]cn1)C(=O)O [histidine]	–	–	–	mean arterial pressure [2]: decrease
cyclo-arginyl-tyrosine [Cyclo(Arg-Tyr)]	–	–	enhanced	–
cyclo-glutamyl-histidine [Cyclo(Glu-His)]	–	–	enhanced	–
cyclo-isoleucyl-serine [Cyclo(Ile-Ser)]	–	–	enhanced	–
